Experimental data taken from paper PMC9728921, “Characterization of a KDM5 small molecule inhibitor with antiviral activity against hepatitis B virus” (PLOS ONE, 2022).
“Also recorded” adds a separate entry of the source.

What was measured:
[1] = molecular target: T1, SIRT-1 (Homo sapiens, UniProt Q96EB6); experiment: SIRT-1 histone deacetylase assay (AlphaLISA); assay type: biochemical; conditions: enzyme conc. 5 nM
T1 construct: 193-741; purchased BPS
Procedure: The assay plates were read on an Enspire plate reader (PerkinElmer) using a standard AlphaLISA program.
(§1) Data was analyzed using GraphPad Prism 6.0 (La Jolla, CA). […] IC50 values were calculated as an average of at least two independent experiments.

[2] = Liver to plasma AUC ratio, cynomolgus monkey; assay type: in vivo, cynomolgus monkeys; conditions: male, liver and plasma, po, 2.5 mg/kg, read-out: GS-080 liver to plasma AUC ratio
Procedure: (§2) Rats and monkeys were dosed by oral gavage once with 1 mg/kg or 2.5 mg/kg, respectively. The rat study included a vehicle control group (water). Serial venous blood samples were taken at 0, 0.25, 0.5, 1, 2, 4, 6, 8, 12, and 24 hours post dose from each animal and collected into vacutainer tubes containing potassium oxalate/sodium fluoride (Thermo Fisher; BD367925) as the anti-coagulant and blood was centrifuged for plasma isolation. […] For monkey, liver samples were taken by biopsy at pre-dose, 1, 4, 24, 48, and 72 hours post dose (n = 2 per time point). Rat and monkey livers were weighed and immediately flash frozen in liquid nitrogen.
(§3) 500 μL of cold HPLC grade water was added to each monkey liver biopsy sample and rat liver samples were diluted 3-fold with cold HPLC grade water. Diluted liver samples were homogenized between 1 and 3 minutes. 50 μL of plasma samples and homogenized liver samples were quenched with 200 μL of 0.05% formic acid in acetonitrile. […] An Agilent 1200 series binary pump (Santa Clara, CA; G1312A) was used for elution and separation of compounds with a Hypersil Gold C18 HPLC column (Thermo Fisher; 50 x 3.0 mm, 5 μm) over 6.75 minutes with 99–3% gradient of Mobile Phase A (1% acetonitrile in 2.5 mM ammonium formate aqueous solution pH 2.6) and 1–97% gradient Mobile Phase B (90% acetonitrile in aqueous 10 mM ammonium formate pH 6.8).

[3] = Liver to plasma AUC ratio, rat; assay type: in vivo, Sprague Dawley rats; conditions: male, Sprague Dawley, liver and plasma, po, 1 mg/kg, read-out: GS-080 liver to plasma AUC ratio
Procedure: as §2, §3

[4] = molecular target: T2, NSD3 (Homo sapiens, UniProt Q9BZ95); experiment: Histone methyltransferase enzymatic assay, NSD3; assay type: biochemical; conditions: enzyme conc. 100 nM
T2 construct: 1021-1322; purchased RBC (read as Reaction Biology Corporation, named)
T2 sequence (Q9BZ95 1021-1322): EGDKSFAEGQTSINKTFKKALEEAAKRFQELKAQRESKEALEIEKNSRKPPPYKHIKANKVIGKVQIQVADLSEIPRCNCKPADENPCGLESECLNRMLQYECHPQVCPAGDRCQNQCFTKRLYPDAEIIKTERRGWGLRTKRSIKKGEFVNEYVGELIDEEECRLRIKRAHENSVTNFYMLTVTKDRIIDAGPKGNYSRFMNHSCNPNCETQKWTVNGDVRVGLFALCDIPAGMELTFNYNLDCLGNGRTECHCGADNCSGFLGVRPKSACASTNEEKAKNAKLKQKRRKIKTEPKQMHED
Procedure: (§4) Histone methyltransferase assays were performed in 96-well half-area optiplates (PerkinElmer) at room temperature. All concentrations are final unless noted otherwise. Compounds were serially diluted in DMSO and the final DMSO concentration was 1%. A 24 μL reaction mixture contained compound, enzyme, 200 nM of nucleosome or histone substrate, 400 nM ^3H-SAM (83.1 Ci/mmol), 50 mM Tris-HCl (pH 8.0), 50 mM NaCl, 5 mM MgCl2, 1 mM DTT, and 0.01% Tween-20. The plate was sealed, mixed on a Titramax plate shaker at 1200 rpm for 30 sec, and incubated at room temperature for 60 min. The reaction was quenched by addition of 24 μL mixture containing 5 mg/mL PVT-PEI beads and 300 μM unlabeled SAM in water. The plate was sealed, mixed as previously noted, incubated overnight, and read on a TopCount plate reader (PerkinElmer).
as §1

[5] = molecular target: T3, G9a (Homo sapiens, UniProt Q96KQ7); experiment: Histone methyltransferase enzymatic assay, G9a; assay type: biochemical; conditions: enzyme conc. 100 nM
T3 construct: 786-1210; purchased RBC (read as Reaction Biology Corporation, named)
T3 sequence (Q96KQ7 786-1210): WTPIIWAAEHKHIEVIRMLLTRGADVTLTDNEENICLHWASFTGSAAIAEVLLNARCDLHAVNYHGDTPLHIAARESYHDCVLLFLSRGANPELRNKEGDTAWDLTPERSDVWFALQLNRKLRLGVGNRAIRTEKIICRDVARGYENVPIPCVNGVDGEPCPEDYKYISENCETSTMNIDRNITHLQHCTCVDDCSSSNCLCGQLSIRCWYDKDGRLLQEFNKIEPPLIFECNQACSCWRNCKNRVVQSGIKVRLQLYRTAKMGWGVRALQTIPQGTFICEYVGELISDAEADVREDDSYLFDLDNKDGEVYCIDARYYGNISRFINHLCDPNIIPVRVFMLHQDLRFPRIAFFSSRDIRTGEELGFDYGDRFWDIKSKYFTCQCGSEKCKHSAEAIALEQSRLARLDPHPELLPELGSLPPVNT
Procedure: as §4, §1

[6] = system: H3K4 methylation; experiment: Histone mass spectrometry of H3K4 methylation in PHH; assay type: cell-based, human; conditions: uninfected PHH; 10 μM every 3 days; Day 7
Procedure: Approximately 25 million PHH from Donor (Bioreclamation) were plated on collagen coated (Coating Matrix kit, Life Technologies, Cat. #R-011-K) plates (coated for 30 minutes at 37°C and subsequently washed twice with PHH plating medium). The PHH plating medium was removed after 16 hours and replaced with PHH maintenance medium (Day 0). […] Modifications to the manufacturer’s protocol included two PBS washes prior to adding the histone extraction buffer to the cells, precipitation of eluted histones in 8% perchloric acid, and a single wash in cold acetone containing 0.2% HCl.
Fresh 1:100 propionic anhydride:water reagent was prepared and 1 μl of mixture was added immediately to the histone sample with vortexing and incubated for 5 minutes at 25°C. The reaction was quenched with 1 μl of 80 mM hydroxylamine for 20 minutes at 25°C. […]
1 μl of sample was injected using a Thermo Fischer Scientific Ultimate 3000 Autosampler (San Jose, CA) onto a 15 cm x 75 μm Thermo Fischer Scientific ES812 Easyspray nano column with 5 μm particle size. […] Each sample was analyzed three times.
Data was searched using Thermo Fischer Scientific Proteome Discoverer V2.1 software. […] The ratio of drug treated/control was calculated for each sample and then corrected using the average protein level ratio to account for differences in total protein between control and treated samples.

[7] = system: HBV cccDNA; experiment: cccDNA levels by Southern blot in HBV-infected PHH; assay type: cell-based, Hepatitis B virus; conditions: 1 or 10 µM every three to four days for 14 days
Procedure: PHH were plated in 24-well plates at 350,000–400,000 live cells per well and infected with HBV genotype D as described above. […] DNA was isolated from PHH using a MasterPure Complete DNA Purification kit (Epicentre, Madison, WI; MC85200) according to the manufacturer’s instructions, but omitting ProteinaseK or RNaseA treatment. After isolation, DNA was treated with T5 exonuclease (New England Biolabs, Ipswich, MA; M0363S) according to the manufacturer’s instructions.
cccDNA and host mitochondrial DNA (ND4) levels were examined by Southern blot using branched DNA signal amplification (bDNA) method as previously described. All probes and reagents were purchased from Thermo Fisher Scientific.
PHH were infected with HBV for three days prior to initiation of GS-5801 treatment. […] Total DNA was isolated, treated with T5 exonuclease to reduce levels of relaxed circular HBV DNA (rcDNA), and probed for cccDNA and mitochondrial DNA (Mt ND4: NADH-ubiquinone oxidoreductase chain 4) by Southern blot.

T1 sequence (Q96EB6 193-741): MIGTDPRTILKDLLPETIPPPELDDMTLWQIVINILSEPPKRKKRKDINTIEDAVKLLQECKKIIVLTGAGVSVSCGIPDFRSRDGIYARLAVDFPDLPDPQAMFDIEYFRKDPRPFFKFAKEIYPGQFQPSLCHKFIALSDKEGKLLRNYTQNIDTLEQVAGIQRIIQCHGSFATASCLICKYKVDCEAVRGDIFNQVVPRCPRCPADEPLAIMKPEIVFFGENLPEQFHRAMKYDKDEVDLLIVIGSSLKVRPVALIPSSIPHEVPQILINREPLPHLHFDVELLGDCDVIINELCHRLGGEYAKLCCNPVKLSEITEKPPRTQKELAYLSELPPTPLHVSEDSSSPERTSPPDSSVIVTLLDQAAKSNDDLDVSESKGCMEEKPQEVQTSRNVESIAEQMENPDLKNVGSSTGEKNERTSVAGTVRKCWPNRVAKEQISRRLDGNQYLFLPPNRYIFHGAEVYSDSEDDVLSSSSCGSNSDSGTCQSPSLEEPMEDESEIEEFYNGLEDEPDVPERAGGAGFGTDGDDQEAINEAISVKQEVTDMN

SMILES | IC50 [1] | Kp [2] | Kp [3] | IC50 [4] | IC50 [5] | change in H3K4 methylation species by quantitative mass spectrometry [6] | levels of cccDNA [7]
CCN(CCN(C)C)C(=O)CNCc1cc(C(=O)O)ccn1 [GS-080] | > 100 µM | 176 | 44 | > 100 µM | > 100 µM | – | –
CCOC(=O)c1ccnc(CNCC(=O)N(CC)CCN(C)C)c1 [GS-5801] | – | – | – | – | – | predominantly caused an increase in trimethylated H3K4 (H3K4me3) | did not alter levels of cccDNA; also recorded: does not reduce levels of cccDNA; also recorded: no sign of reduced cccDNA
